Data on 1 compound can be found in US20090258071A1, “COMPOSITIONS AND METHODS FOR PH TARGETED DRUG DELIVERY” (Labopharm, Inc., priority 2006, published 2009).

Each structure is given as a SMILES string.

The data set in a line: Dissolution of SN-38 in phosphate buffer pH 6.8. The conditions noted are these: FIG. 4. It counts as physicochemical. The procedure:
The kinetics of drug release can be determined by measuring the amount of drug released into phosphate buffer pH 6.8 at 37° C. via conventional high pressure liquid chromatography (HPLC).
The experiment was repeated in a solution at a higher pH, specifically pH 6.8. Briefly, the dissolution of SN-38 was measured either as SN-38 alone or from SN-38 containing micelles prepared as described in Example 2. The freeze dried cake produced in Example 2 was added to phosphate buffer pH 6.8 and the drug concentration was measured under the same conditions as the experiment using aqueous HCl at pH 1.2.

As for `CCc1c2c(nc3ccc(O)cc13)-c1cc3c(c(=O)n1C2)COC(=O)[C@]3(O)CC` [SN-38, 7-ethyl-10-hydroxy-camptothecin], the dissolution behaviour result is on record as “rapidly precipitates from solution”.
